Data published in EP4703362A1 (Chengdu Sibeibo Pharmaceutical Technology Co., Ltd, priority 2023, dated 2024).
pIC50: −log10 of the molar value. Where two headings read alike, the source gives them in different places.

What was measured:
[1] = stability test in liver microsomes (human); format: in vitro ADME
Procedure: (§1) The stability of the compound of the present invention in liver microsomes of rat, monkey and human was determined. Tested compounds of the present invention were the compounds in Examples 6, 8 and 29, and a control drug was Zavegepant.
(§2) 3.2 An appropriate amount of liver microsome solution was transferred into a 1 mL 96-deep-well plate, added with a tested drug liquid (or a probe substrate solution), and pre-incubated in a thermal mixer at 37°C for 5 minutes. Two parts of mixed solutions were taken out from the system and added with 1×PBS to replace NADPH, and the mixed solutions were taken out at 0 and 60 minutes respectively, and added with methanol (containing an internal standard) to terminate the reaction. In the remaining mixed system, each well was added with NADPH to start the reaction. In the tested substance group, mixed solutions were taken out from the system at 0, 5, 15, 30, 45 and 60 minutes, and in the control group, mixed solutions were taken out from the system at 0, 30 and 60 minutes, and the mixed solutions were added methanol (containing an internal standard) to terminate the reaction. All samples of the terminated reaction were mixed evenly and centrifuged in a centrifuge at 3800 rpm for 15 minutes, and the supernatant was taken for LC-MS/MS analysis.
(§3) A peak area was determined by an extracted ion chromatogram. A slope value k was determined by linear regression of a remaining percentage of a parent drug relative to a natural logarithm of an incubation time curve. According to the slope, in-vitro half-life periods (t1/2) were respectively calculated, and in-vitro intrinsic clearance rates (CLint, represented by µL/min/mg protein) were calculated. Calculation formulas were as follows: t1/2 = ln2/k = 0.693/k; and CLint = 0.693/t1/2 /liver microsome protein concentration [formula]

[2] = plasma protein binding rate test, equilibrium dialysis (human); format: in vitro ADME; details: 1 µM, 6 hours, 37°C
Procedure: (§4) Protein binding rates of the compound of the present invention in plasma of rat, monkey and human were determined by an equilibrium dialysis method. Tested compounds of the present invention were the compounds in Examples 6, 8 and 29, and a control drug was Zavegepant.
(§5) 3.1 A dry dialysis membrane was rinsed with ultrapure water for 2-3 times, and then soaked in a phosphate buffer for 1 hour for later use. Polytetrafluoroethylene module was soaked in 20% ethanol for 30 minutes, and then surface moisture was dried with dust-free paper for later use. The pretreated dialysis membrane was assembled into a dialysis plate according to the product specification, and one side (receptor compartment) of an osmotic membrane in each dialysis well was added with 100 µL of receptor fluid (100 mM phosphate buffer solution plus 0.002% Tween 80).
(§6) 3.2 The plasma was put into a centrifuge tube, a working solution of a tested substance was added into the plasma, wherein a final concentration was 1 µM, and the mixture was turned upside down and mixed evenly (this step was carried out in ice bath). 20 µL of drug-containing plasma each was taken, and was respectively transferred to a 96-well sample plate according to two parts in parallel, and stored in a refrigerator at -20°C as a T0 sample.
(§7) 3.3 Another 100 µL of the above drug-containing plasma was transferred to the other side (sample compartment) of the membrane in the dialysis device according to two parts in parallel, and incubated under vibration at a constant temperature of 37°C for 6 hours. After 6 hours of incubation, 20 µL of the plasma was respectively taken out from the receptor compartment and the sample compartment after equilibration to obtain samples B and A. The samples B and A were respectively added with corresponding volumes of corresponding blank plasma or phosphate buffer solution (containing 0.002% Tween 80), so that a volume ratio of the plasma to the buffer solution in each sample well was 1: 1.
(§8) 3.4 All sample wells were added with 250 µL of methanol solution containing an internal standard, mixed evenly and then centrifuged in a centrifuge at 3800 rpm for 10 minutes. […]
(§9) A plasma protein binding rate and a recovery rate of the compound in plasma were calculated by the following formulas: dissociation percentage (%) = CB /CA; [formula] plasma protein binding rate (fb%) = 1−dissociation percentage (%); [formula] recovery rate (%) = (CB+CA)/CT0 [formula] wherein CB was a concentration of the compound in the receptor fluid after equilibrium dialysis; CA was a concentration of the compound in the drug-containing plasma after equilibrium dialysis; and CT0 was an initial concentration of the compound in plasma.

[3] = plasma protein binding rate test, equilibrium dialysis (rat); format: in vitro ADME, SD rat; details: 1 µM, 6 hours, 37°C
Procedure: as §4, §5, §6, §7, §8, §9

[4] = stability test in liver microsomes (monkey); format: in vitro ADME
Procedure: as §1, §2, §3

[5] = stability test in liver microsomes (rat); format: in vitro ADME
Procedure: as §1, §2, §3

[6] = plasma protein binding rate test, equilibrium dialysis (monkey); format: in vitro ADME, cynomolgus monkey; details: 1 µM, 6 hours, 37°C
Procedure: as §4, §5, §6, §7, §8, §9

CGRP receptor complex = target: T1, CGRP receptor complex (Homo sapiens, UniProt O60894+Q16602); assay: determination of cell functional antagonism - cAMP determination; format: cell-based
T1 construct: host or cells: SK-N-MC
T1 sequence (Q16602 23-461): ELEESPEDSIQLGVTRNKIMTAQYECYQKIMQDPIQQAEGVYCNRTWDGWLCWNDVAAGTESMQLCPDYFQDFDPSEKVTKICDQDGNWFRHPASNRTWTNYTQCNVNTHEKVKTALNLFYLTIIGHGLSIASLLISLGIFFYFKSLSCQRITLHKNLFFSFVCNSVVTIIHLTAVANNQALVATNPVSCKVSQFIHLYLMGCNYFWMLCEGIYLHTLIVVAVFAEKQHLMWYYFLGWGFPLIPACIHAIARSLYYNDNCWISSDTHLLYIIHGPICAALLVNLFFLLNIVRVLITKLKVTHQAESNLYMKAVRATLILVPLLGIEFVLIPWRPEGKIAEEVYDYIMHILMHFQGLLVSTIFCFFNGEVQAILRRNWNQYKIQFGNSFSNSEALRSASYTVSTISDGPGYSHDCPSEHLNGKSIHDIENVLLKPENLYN
T1 sequence (O60894 27-148): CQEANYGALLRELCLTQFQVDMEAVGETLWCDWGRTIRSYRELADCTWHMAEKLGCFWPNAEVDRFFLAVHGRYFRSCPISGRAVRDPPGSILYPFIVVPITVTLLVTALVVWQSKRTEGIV
Procedure: 1.Experimental principle A CGRP receptor complex was coupled with Gs in G protein, the combination of CGRP and CGRP receptor complex led to Gs activation, and cAMP (3',5'-cyclic adenosine monophosphate) was produced. 2.Experimental purpose The ability of the compound of the present invention to inhibit CGRP-stimulated cAMP formation in SK-N-MC cells was determined. 3.Experimental materials 3.1Experimental cell line: SK-N-MC (neuroepithelioma cells) from National Science and Technology Infrastructure - Biomedical Materials and Cell Resources. 3.2Reagents and consumables
4.Experimental steps • 4.1Cell preparation: The SK-N-MC cells were resuscitated and cultured in advance, and a cell confluence degree should be 70%-80% before use. • 4.2A sample dilution, a tested compound and α-CGRP (human) were prepared. • 4.3Cell seeding and drug effect: The SK-N-MC cells were digested, centrifuged, then resuspended with the sample dilution, and inoculated into a 384-well plate. Each well was added with the α-CGRP (human) and the tested compound respectively, and blown and mixed evenly. The well plate was adhered with a sealing film, and placed on an enzyme-labeled incubator to incubate at 25°C. • 4.4cAMP determination: carried out according to LANCE Ultra cAMP Kit specification Eu-cAMP tracer and ULight-anti-cAMP working solutions were prepared in the dark, respectively added into the well plate, and blown and mixed evenly.

[7] = in-vivo pharmacokinetic study on SD rats, intravenous and intranasal administration; details: for AUC: read-out: Area under curve AUC; for half-life: read-out: Half-life period t1/2 (converted)
Procedure: Species: SD rats, male, SPF level.
2.1 An appropriate amount of drug was accurately weighed and added with 50 mM succinate buffer (diluted with D5W, pH=5-6), and mixed evenly and dissolved fully in an ultrasonic and vortexed mode to obtain a 0.2 mg/mL drug solution for intravenous (IV) administration.
2.2 An appropriate amount of drug was accurately weighed and added with 50 mM succinate buffer (diluted with pure water, pH=5-6), and mixed evenly and dissolved fully in an ultrasonic and vortexed mode to obtain a 10 mg/mL drug solution for intranasal (IN) administration.
5 minutes, 10 minutes, 15 minutes, 0.5 hour, 1 hour, 2 hours, 4 hours, 8 hours and 24 hours after administration.
Blood was collected through a jugular vein, about 0.2 mL of each sample was collected, EDTA-K2 was used for anticoagulation, the collected blood sample was placed on ice, and plasma was centrifugally separated within 2 hours (at 6000 g and 2-8°C for 5 minutes). The collected plasma samples were stored in a refrigerator at -80°C before analysis, and the remaining plasma samples after analysis were continuously stored in the refrigerator at -80°C for temporary storage.
A concentration of a specified compound in plasma was determined by an LC-MS/MS method, and main pharmacokinetic parameters were calculated by a Winnolin 8.3 non-compartmental model.

[8] = inhibition of CGRP-stimulated cAMP formation in SK-N-MC cells, read-out: IC50
[9] = male, rat, plasma, other: intranasal, IN@2 mg/kg

SMILES: [2H]C([2H])([2H])N1CCC(N2CCN(C(=O)[C@@H](Cc3cc(C)c4[nH]ncc4c3)NC(=O)N3CCC(c4cc5c([nH]c4=O)SCC5)CC3)CC2)CC1 [Example 29, (R)-N-(3-(7-methyl-1H-indazole-5-yl)-1-(4-(1-(methyl-d3)piperidine-4-yl)piperazine-1-yl)-1-oxopropan-2-yl)-4-(6-oxo-2,3,6,7-tetrahydrothieno[2,3-b]pyridine-5-yl)piperidine-1-formamide]
- % remaining (60 min) [1]: 115%
- fb (%) [2]: 50.2%
- fb (%) [3]: 64.3%
- % remaining (60 min) [4]: 98.9%
- % remaining (60 min) [5]: 105%
- fb (%) [6]: 56.1%

SMILES: Cc1cc(C[C@@H](NC(=O)N2CCC(c3cc4c([nH]c3=O)SCCC4)CC2)C(=O)N2CCC(C)(N3CCCCC3)CC2)cc2cn[nH]c12 [Example 24, (R)-N-(3-(7-methyl-1H-indazole-5-yl)-1-(4'-methyl-[1,4'-bipiperidine]-1'-yl)-1-oxopropan-2-yl)-4-(7-oxo-3,4,7,8-tetrahydro-2H-thiopyrano[2,3-b]pyridine-6-yl)piperidine-1-formamide]
- pIC50 (CGRP receptor complex; [8]): 8.99

SMILES: Cc1cc(C[C@@H](NC(=O)N2CCC(c3cc4c([nH]c3=O)SCC4)CC2)C(=O)N2CCN(C3CCN(C)CC3)CC2)cc2cn[nH]c12 [Example 8, (R)-N-(3-(7-methyl-1H-indazole-5-yl)-1-(4-(1-methylpiperidine-4-yl)piperazine-1-yl)-1-oxopropan-2-yl)-4-(6-oxo-2,3,6,7-tetrahydrothieno[2,3-b]pyridine-5-yl)piperidine-1-formamide]
- half-life at 1 µM ([1]; 1.0 µM): > 2 h
- microsomal CLint at 1 µM ([1]; 1.0 µM): 3.2 µL/min/mg
- % remaining (60 min) [1]: 85.8%
- Apparent clearance CL ([7]; IV@1 mg/kg): 5.94 mL/min/kg
- AUC ([7]; male, rat, plasma, IV@1 mg/kg): 2850 ng·h/mL
- half-life ([7]; male, rat, plasma, IV@1 mg/kg): 7.58 h
- Vd ([7]; male, rat, plasma, IV@1 mg/kg, read-out: Volume of distribution steady-state Vss): 0.5 L/kg
- AUC [7, 9]: 626 ng·h/mL
- bioavailability ([7]; male, rat, plasma, other: intranasal, IN@2 mg/kg, read-out: Bioavailability F%): 11%
- Cmax ([7]; male, rat, plasma, other: intranasal, IN@2 mg/kg, read-out: Concentration to peak Cmax): 204 ng/mL
- half-life [7, 9]: 3.41 h
- fb (%) [2]: 64.1%
- fb (%) [3]: 69.4%
- half-life at 1 µM ([4]; 1.0 µM): 1.48 h
- microsomal CLint at 1 µM ([4]; 1.0 µM): 15.6 µL/min/mg
- % remaining (60 min) [4]: 61.6%
- half-life at 1 µM ([5]; 1.0 µM): > 2 h
- microsomal CLint at 1 µM ([5]; 1.0 µM): 1.6 µL/min/mg
- % remaining (60 min) [5]: 90.7%
- fb (%) [6]: 47.7%

SMILES: Cc1cc(C[C@@H](NC(=O)N2CCC(c3cc4c([nH]c3=O)CSC4)CC2)C(=O)N2CCN(C3CCN(C)CC3)CC2)cc2cn[nH]c12 [Example 11, (R)-N-(3-(7-methyl-1H-indazole-5-yl)-1-(4-(1-methylpiperidine-4-yl)piperazine-1-yl)-1-oxopropan-2-yl)-4-(2-oxo-1,2,5,7-tetrahydrothieno[3,4-b]pyridine-3-yl)piperidine-1-formamide]
- pIC50 (CGRP receptor complex; [8]): 8.11

SMILES: Cc1cc(C[C@@H](NC(=O)N2CCC(c3cc4c([nH]c3=O)SCC3CC43)CC2)C(=O)N2CCN(C3CCN(C)CC3)CC2)cc2cn[nH]c12 (stereo partly drawn) [Example 47, N-((R)-3-(7-methyl-1H-indazole-5-yl)-1-(4-(1-methylpiperidine-4-yl)piperazine-1-yl)-1-oxopropan-2-yl)-4-(5-oxo-1,1a,2,4,5,7b-hexahydrocyclopropo[4,5]thiopyrano[2,3-b]pyridine-6-yl)piperidine-1-formamide]
- pIC50 (CGRP receptor complex): 9.62

SMILES: Cc1cc(C[C@@H](NC(=O)N2CCC(c3cc4c([nH]c3=O)SCC4)CC2)C(=O)N2CCN(C3CCNCC3)CC2)cc2cn[nH]c12 [Example 50, (R)-N-(3-(7-methyl-1H-indazole-5-yl)-1-oxo-1-(4-(piperidine-4-yl)piperazine-1-yl)propan-2-yl)-4-(6-oxo-2,3,6,7-tetrahydrothieno[2,3-b]pyridine-5-yl)piperidine-1-formamide]
- pIC50 (CGRP receptor complex; [8]): 10.15

SMILES: Cc1cc(C[C@@H](NC(=O)N2CCC(c3cc4c([nH]c3=O)CCC4(C)C)CC2)C(=O)N2CCN(C3CCN(C)CC3)CC2)cc2cn[nH]c12 [Example 7]
- pIC50 (CGRP receptor complex): 8.22

SMILES: Cc1cc(CC(OC(=O)N2CCC(c3cc4c([nH]c3=O)SCC4)CC2)C(=O)N2CCN(C3CCN(C)CC3)CC2)cc2cn[nH]c12 (stereo not shown) [Example 42, 3-(7-methyl-1H-indazole-5-yl)-1-(4-(1-methylpiperidine-4-yl)piperazine-1-yl)-1-oxopropan-2-yl-4-(6-oxo-2,3,6,7-tetrahydrothieno[2,3-b]pyridine-5-yl)piperidine-1-formate]
- pIC50 (CGRP receptor complex; [8]): 9.57

SMILES: Cc1cc(C[C@@H](NC(=O)N2CCC(c3cc4c([nH]c3=O)SCC43CC3)CC2)C(=O)N2CCN(C3CCN(C)CC3)CC2)cc2cn[nH]c12 [Example 33, (R)-N-(3-(7-methyl-1H-indazole-5-yl)-1-(4-(1-methylpiperidine-4-yl)piperazine-1-yl)-1-oxopropan-2-yl)-4-(6'-oxo-6',7'-dihydro-2'H-spiro[cyclopropane-1,3'-thieno][2,3-b]pyridine-5'-yl)piperidine-1-formamide]
- pIC50 (CGRP receptor complex): 9.43

SMILES: Cc1cc(C[C@@H](NC(=S)N2CCC(c3cc4c([nH]c3=O)SCC4)CC2)C(=O)N2CCN(C3CCN(C)CC3)CC2)cc2cn[nH]c12 [Example 16]
- pIC50 (CGRP receptor complex): 9.15
